# Key:
# ERK MAPK = ERK MAPK phosphorylation in WT and GluN2A-KO mouse neuron cultures (immunoblot); format: cell-based, mice; conditions: L-homocysteine 50 μM
# Text: Primary cortical neuronal cultures were established from embryos obtained from pregnant Sprague Dawley female rats (16-17 day gestation) as previously described (Podder and Paul, 2009, J Neurochem 110:1095-1106; Poddar and Paul, 2013, J Neurochem 124: 558-570). Primary cortical neuronal cultures were also developed from pregnant wildtype or GluN2A-knockout mice (15-16 day gestation) using similar protocols. The cells were maintained in culture for 12-14 days prior to treatment with homocysteine. L-homocysteine (200 mM stock) was prepared by alkali hydrolysis of L-homocysteine thiolactone hydrochloride followed by neutralization with 2N HCL and maintained in 0.02 mM N-Tris(hydroxymethyl)methyl-2-aminoethanesulfonicd acid (TES) buffer pH 7.4 (Poddar et al., 2001, Circulation 103:2717-2723). For receptor stimulation neurons were treated with freshly prepared 50 μM of L-homocysteine in Hank's balanced salt solution (Podder and Paul, 2009, J Neurochem 110:1095-1106; Poddar and Paul, 2013, J Neurochem 124: 558-570) containing 50 μM of glycine (Lipton et al., 1997, Proc Natl Acad Sci USA 94:5923-5928). In a subset of culture plates, pharmacological inhibitors (NVP-AAM007) were added […] prior to homocysteine addition and maintained during homocysteine treatment. Cells were processed for immunoblotting or Hoechst DNA staining.
# Equal protein from total cell lysates obtained from rat and mice neuronal cultures were resolved in 7.5% SDS-PAGE, and subjected to immunoblotting procedure as described earlier (Podder and Paul, 2009, J Neurochem 110:1095-1106). Blots were analyzed with antibodies as described in each experiment. All primary antibodies (anti-pERK, anti-ERK) and secondary-horse radish peroxidase conjugated antibody concentrations were used according to recommendations provided by the manufacturer. Signals from immune complexes in the blots were developed using West Pico supersignal chemiluminescence reagents and then captured on X-ray films. Densitometric analysis of the images was performed using the Image J software.
# Embryos obtained from pregnant Sprague Dawley rats (16-17-day gestation) or wild type (WT) and GluN2A KO mice (15-16-day gestation) were used to establish primary cortical neuronal cultures as previously described (Poddar and Paul, 2009, J Neurochem 110:1095-1106; Poddar and Paul, 2013, J Neurochem 124:558-570; Poddar et al., 2017, J Neurochem 142:560-573). Neurons were grown on either (a) 35-mm culture dishes (MatTek Corp., Ashland, Mass.) coated overnight with poly-D-lysine (50 μg/ml) and laminin (10 μg/ml) for Ca^2+ imaging studies, (b) poly-D-lysine-coated 60 mm dishes (Corning BIOCOAT, Corning Inc., Corning, N.Y.) for biochemical studies, or (c) poly-D-lysine-coated 4-well culture slides (Corning BIOCOAT, Corning Inc., Corning, N.Y.) for cell death assay. Neurons were maintained in culture for 12-13 days before experiment. The cells were treated with freshly prepared L-homocysteine (50 μM) in Hank's balanced salt solution containing 50 μM of glycine (Lipton et al., 1997, Proceedings of the National Academy of Sciences of the United States of America 94:5923-5928; Poddar and Paul, 2009, J Neurochem 110:1095-1106; Poddar and Paul, 2013, J Neurochem 124:558-570; Poddar et al., 2017, J Neurochem 142:560-573) for the specified time periods. In a parallel series of experiments, cells were treated with glutamate (50 μM) for the specified time periods. Cells were then processed for live cell imaging, immunoblotting or cell death assay. […]
# MCP-1 = MCP-1 level in ischemic brain (ELISA); format: in vivo, Wistar rats; conditions: HHcy rats, MCAO 60 minutes, six hours of reperfusion, NVP-AAM077 1.2 mg/kg intravenous at onset of insult
# Description: Wistar rats were made hyperhomocysteinemic using osmotic pump containing L-homocysteine. Animals were hyperhomocysteinemic (19-23 μM) within three days of pump implantation. Ischemic stroke was induced by MCAO for 60 minutes followed by reperfusion for six hours. Tissue punches from the ipsilateral striatum and cortex were lysed in ice-cold Phosphate buffered saline (pH 7.4) containing phosphatase inhibitor, sonicated three times in five-second bursts and placed on ice (two minutes) between each burst of sonication. The lysed cell suspensions were centrifuged at 10,000 rpm (10 minutes) and the supernatant was collected in another tube. Equal amounts of protein from the supernatant were processed for PGE2 and MCP-1 levels using respective ELISA kit.
SMILES,"ERK MAPK phosphorylation (ERK MAPK; neurons from GluN2A KO mice, 30 or 60 minutes)","ERK MAPK phosphorylation (ERK MAPK; neurons from GluN2A-KO mice, four hours)","ERK MAPK phosphorylation (ERK MAPK; neurons from WT mice, 30 or 60 minutes)","ERK MAPK phosphorylation (ERK MAPK; neurons from WT mice, four hours)",MCP-1 level in ischemic hemisphere (cortex and striatum) (MCP-1)
N[C@@H](CCS)C(=O)O [L-homocysteine],fails to induce ERK MAPK phosphorylation,remains unchanged,sustained increase in ERK MAPK phosphorylation,significant increase in ERK MAPK phosphorylation,–
"C[C@H](NC(c1cccc2[nH]c(=O)c(=O)[nH]c12)P(=O)(O)O)c1ccc(Br)cc1 (stereo partly drawn) [NVP-AAM077, ({[(1S)-1-(4-bromophenyl)ethyl]amino}-(2,3-dioxo-1,4-dihydroquinoxalin-5-yl)methyl)phosphonic acid]",–,–,–,–,attenuated the increase in the level of both PGE2 and MCP-1
